Assays:
Type in all cases: in vivo
[1] = system: beggarticks (hairy beggarticks, Bidens pilosa); experiment: Test E pre-/postemergence: beggarticks; details: Postemergence, scale 0 to 100
Description: Seeds of plant species selected from corn (Zea mays), soybean (Glycine max), velvetleaf (Abutilon theophrasti), lambsquarters (Chenopodium album), poinsettia, wild (wild poinsettia, Euphorbia heterophylla), pigweed, palmer (palmer pigweed, Amaranthus palmeri), waterhemp (common waterhemp, Amaranthus rudis), smartweed (ladysthumb smartweed, Polygonum persicaria), surinam grass (Brachiaria decumbens), crabgrass, large (large crabgrass, Digitaria sanguinalis), crabgrass, Brazil (Brazilian crabgrass, Digitaria horizontalis), panicum, fall (fall panicum, Panicum dichotomiflorum), foxtail, giant (giant foxtail, Setaria faberii), foxtail, green (green foxtail, Setaria viridis), goosegrass (Eleusine indica), johnsongrass (Sorghum halepense), ragweed (common ragweed, Ambrosia elation), barnyardgrass (Echinochloa crus-galli), sandbur (southern sandbur, Cenchrus echinatus), arrowleaf sida (Sida rhombifolia), ryegrass, Italian (Italian ryegrass, Lolium multiflorum), dayflower, (VA) (Virginia dayflower, Commelina virginica), field bindweed (Convolvulus arvensis), cocklebur (common cocklebur, Xanthium strumarium), morningglory (Ipomoea coccinea), nightshade (eastern black nightshade, Solanum ptycanthum), kochia (Kochia scoparia), nutsedge, yellow (yellow nutsedge, Cyperus esculentus) and beggarticks (hairy beggarticks, Bidens pilosa) were planted into a silt loam soil and treated preemergence with test chemicals formulated in a non-phytotoxic solvent mixture which included a surfactant. At the same time, plants selected from these crop and weed species were planted in pots containing a growing medium comprising spaghnum peat moss, vermiculite, wetting agent and starter nutrients and treated with postemergence applications of some of the test chemicals formulated in the same manner. Plants ranged in height from 2 to 18 cm for postemergence treatments (1- to 4-leaf stage).
Treated plants and controls were maintained in a greenhouse for 14 to 21 days, after which time all species were compared to controls and visually evaluated. Plant response ratings, summarized in Table E, are based on a scale of 0 to 100 where 0 is no effect and 100 is complete control. A dash (-) response means no test result.

[2] = system: barley (HORBW, Hordeum vulgare); experiment: Test H post-emergence, alone and in combination: barley
Description: (§1) Seeds of plant species selected from wheat (TRZAW, Triticum aestivum), barley (HORBW, Hordeum vulgare), Kochia (KCHSC, Kochia caoparia) blackgrass (ALOMY, Alopecurus myosuroides), canarygrass (PHAMI, Phalaris minor), Italian ryegrass (LOLMU, Lolium multiflorum) common lambsquarter (CHEAL, Chenopodium album), pigweed (AMARE, Amaranthus retroflexus), Common Chickweed (STEME, Stellaria media), Russian thistle (SASKR, Salsola iberica), Wild Buckwheat (POLCO, Polygonum convolvulus), Catchweed Bedstraw (GALAP, Galium aparine), Mustard (SINAR, Sinapisar arvensis), Henbit Deadnettle (LAMAM, Lamium amplexicaule), Wild Radish (RAPRA, Raphanus raphanistrum), Field Poppy (PAPRH, Papaver rhoeas), Field Violet (VIOAR, Viola arvennsis), Scentless Chamomile (MATIN Matricaria inodora) were planted into soil and treated post-emergence with test chemicals formulated in a non-phytotoxic solvent mixture. Plants were grown in a greenhouse using supplemental lighting to maintain a photoperiod of approximately 14 hours; daytime and nighttime temperatures were approximately 23°-29° and 16°-19° Celsius, respectively. Balanced fertilizer was applied through the watering system. Treated plants and controls were maintained in a greenhouse for 20 days, after which time all species were compared to controls and visually evaluated. Plant response ratings were calculated as the mean of three replicates (unless otherwise indicated), are summarized in Table G, and are based on a scale of 0 to 100 where 0 is no effect and 100 is complete control. A dash (-) response means no test result.

[3] = system: Kochia (KCHSC, Kochia caoparia); experiment: Test H post-emergence, alone and in combination: Kochia
Description: as §1

[4] = system: blackgrass (ALOMY, Alopecurus myosuroides); experiment: Test H post-emergence, alone and in combination: blackgrass
Description: as §1

[5] = system: canarygrass (PHAMI, Phalaris minor); experiment: Test H post-emergence, alone and in combination: canarygrass
Description: as §1

[6] = system: Italian ryegrass (LOLMU, Lolium multiflorum); experiment: Test H post-emergence, alone and in combination: Italian ryegrass
Description: as §1

[7] = system: common lambsquarter (CHEAL, Chenopodium album); experiment: Test H post-emergence, alone and in combination: common lambsquarter
Description: as §1

[8] = system: pigweed (AMARE, Amaranthus retroflexus); experiment: Test H post-emergence, alone and in combination: pigweed
Description: as §1

[9] = system: Russian thistle (SASKR, Salsola iberica); experiment: Test H post-emergence, alone and in combination: Russian thistle
Description: as §1

[10] = system: Wild Buckwheat (POLCO, Polygonum convolvulus); experiment: Test H post-emergence, alone and in combination: Wild Buckwheat
Description: as §1

[11] = system: Catchweed Bedstraw (GALAP, Galium aparine); experiment: Test H post-emergence, alone and in combination: Catchweed Bedstraw
Description: as §1

[12] = system: Mustard (SINAR, Sinapisar arvensis); experiment: Test H post-emergence, alone and in combination: Mustard
Description: as §1

[13] = system: Henbit Deadnettle (LAMAM, Lamium amplexicaule); experiment: Test H post-emergence, alone and in combination: Henbit Deadnettle
Description: as §1

[14] = system: Scentless Chamomile (MATIN Matricaria inodora); experiment: Test H post-emergence, alone and in combination: Scentless Chamomile
Description: as §1

SMILES: Cc1nn(-c2ccc(C(F)(F)F)cc2)nc1Cc1ccnc(C(F)(F)F)c1 [Compound 47, 4-[[5-methyl-2-[4-(trifluoromethyl)phenyl]-2H-1,2,3-triazol-4-yl]methyl]-2-(trifluoromethyl)pyridine]
- Plant response rating: Beggarticks ([1]; 250 g ai/ha): 50
- Plant response rating: Beggarticks ([1]; 16 g ai/ha): 30
- Plant response rating: Beggarticks ([1]; 31 g ai/ha): 30
- Plant response rating: Beggarticks ([1]; 62 g ai/ha): 40
- Plant response rating: Beggarticks ([1]; 125 g ai/ha): 50

SMILES: Cc1nn(-c2ccc(F)cc2)nc1Oc1ccnc(C(F)(F)F)c1 [Compound 129, 4-[[2-(4-fluorophenyl)-5-methyl-2H-1,2,3-triazol-4-yl]oxy]-2-(trifluoromethyl)pyridine]
- HORBW plant response ([2]; Rate 31): 10
- HORBW plant response ([2]; Rate 62): 15
- HORBW plant response ([2]; Rate 125): 15
- KCHSC plant response ([3]; Rate 31): 80
- KCHSC plant response ([3]; Rate 62): 85
- KCHSC plant response ([3]; Rate 125): 95
- ALOMY plant response ([4]; Rate 31): 5
- ALOMY plant response ([4]; Rate 62): 10
- ALOMY plant response ([4]; Rate 125): 30
- PHAMI plant response ([5]; Rate 31): 15
- PHAMI plant response ([5]; Rate 62): 20
- PHAMI plant response ([5]; Rate 125): 60
- LOLMU plant response ([6]; Rate 31): 10
- LOLMU plant response ([6]; Rate 62): 10
- LOLMU plant response ([6]; Rate 125): 15
- CHEAL plant response ([7]; Rate 31): 85
- CHEAL plant response ([7]; Rate 62): 80
- CHEAL plant response ([7]; Rate 125): 90
- AMARI plant response ([8]; Rate 31): 80
- AMARI plant response ([8]; Rate 62): 90
- AMARI plant response ([8]; Rate 125): 95
- SASKR plant response ([9]; Rate 31): 65
- SASKR plant response ([9]; Rate 62): 80
- SASKR plant response ([9]; Rate 125): 90
- POLCO plant response ([10]; Rate 31): 30
- POLCO plant response ([10]; Rate 62): 25
- POLCO plant response ([10]; Rate 125): 70
- GALAP plant response ([11]; Rate 31): 65
- GALAP plant response ([11]; Rate 62): 60
- GALAP plant response ([11]; Rate 125): 70
- SINAR plant response ([12]; Rate 31): 80
- SINAR plant response ([12]; Rate 62): 95
- SINAR plant response ([12]; Rate 125): 95
- LAMAM plant response ([13]; Rate 31): 60
- LAMAM plant response ([13]; Rate 62): 70
- LAMAM plant response ([13]; Rate 125): 80
- MATIN plant response ([14]; Rate 31): 0
- MATIN plant response ([14]; Rate 62): 5
- MATIN plant response ([14]; Rate 125): 10
